Laboratory results published in patent US20230115274A1, “COMPOUNDS AND COMPOSITIONS FOR TREATING CONDITIONS ASSOCIATED WITH STING ACTIVITY” (IFM Due, Inc., priority 2019, published 2023).

Molecular target: T1, hSTING (Homo sapiens, UniProt Q86WV6, G230A/H232R/R293Q/R71H)
T1 construct: host or cells: THP1-Dual KO-IFNAR2 cells
Assay: STING reporter assay (luciferase) in THP1-Dual KO-IFNAR2 cells stimulated with 2′3′cGAMP
Format: cell-based
Settings: 2′3′cGAMP 15 μM, 24 h
In short: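 THP1-Dual KO-IFNAR2 cells (2×10E6 cells/mL) were treated with compound at 0.0017-100 μM final plus 15 μM final 2′3′cGAMP delivered with Lipofectamine 2000. After 24 h at 37° C., secreted luciferase in supernatant was read by QUANTI-Luc luminescence and EC50 values were fitted.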

T1 sequence (Q86WV6 whole entry R71H/G230A/H232R/R293Q): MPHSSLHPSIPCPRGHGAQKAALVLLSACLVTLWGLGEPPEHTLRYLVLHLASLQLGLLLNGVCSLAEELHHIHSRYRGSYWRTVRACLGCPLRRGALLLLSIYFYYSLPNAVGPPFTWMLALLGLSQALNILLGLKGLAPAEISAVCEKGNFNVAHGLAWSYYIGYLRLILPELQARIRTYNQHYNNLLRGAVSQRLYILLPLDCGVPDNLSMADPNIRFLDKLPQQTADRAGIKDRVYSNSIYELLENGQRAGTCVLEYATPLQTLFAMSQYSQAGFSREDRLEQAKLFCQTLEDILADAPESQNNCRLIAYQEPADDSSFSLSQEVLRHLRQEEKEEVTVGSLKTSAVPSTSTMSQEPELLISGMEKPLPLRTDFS

EC50 (class symbols)	EC50 (numeric bounds)	Structure (SMILES)
200 to 1000 nM	–	COc1cc2c(NC(=O)Nc3ccc(C4CCC(F)(F)CC4)c(C#N)c3)c[nH]c2cn1 [Compound 154, 1-(3-cyano-4-(4,4-difluorocyclohexyl)phenyl)-3-(5-methoxy-1H-pyrrolo[2,3-c]pyridin-3-yl)urea]
200 to 1000 nM	–	O=C(Nc1cnc(N2CCC(F)(F)CC2)c(Cl)c1)Nc1c[nH]c2ccc(Cl)nc12 [Compound 144, 1-(5-chloro-1H-pyrrolo[3,2-b]pyridin-3-yl)-3-(5-chloro-6-(4,4-difluoropiperidin-1-yl)pyridin-3-yl)urea]
1000 to 5000 nM	–	Cc1cc(NC(=O)Nc2c[nH]c3cccnc23)cnc1N1CCC(F)(F)CC1 [Compound 146, 1-(6-(4,4-difluoropiperidin-1-yl)-5-methylpyridin-3-yl)-3-(1H-pyrrolo[3,2-b]pyridin-3-yl)urea]
5000 to 100000 nM	–	O=C(Nc1ccc(C2CCC(F)(F)CC2)nc1)Nc1c[nH]c2nc(Br)c(F)cc12 [Compound 180, 1-(6-bromo-5-fluoro-1H-pyrrolo[2,3-b]pyridin-3-yl)-3-(6-(4,4-difluorocyclohexyl)pyridin-3-yl)urea]
1000 to 5000 nM	–	COCCOc1ccc2[nH]cc(NC(=O)Nc3ccc(C4CCC(F)(F)CC4)nc3)c2n1 [Compound 212, 1-(6-(4,4-difluorocyclohexyl)pyridin-3-yl)-3-(5-(2-methoxyethoxy)-1H-pyrrolo[3,2-b]pyridin-3-yl)urea]
40 to 200 nM	–	Cc1cc(NC(=O)Nc2c[nH]c3ncc(F)cc23)cnc1N1CCC(F)(F)CC1 [Compound 198, 1-(6-(4,4-difluoropiperidin-1-yl)-5-methylpyridin-3-yl)-3-(5-fluoro-1H-pyrrolo[2,3-b]pyridin-3-yl)urea]
200 to 1000 nM	–	COCCOc1ccc2[nH]cc(NC(=O)Nc3cnc(C4CCC(F)(F)CC4)c(F)c3)c2n1 [Compound 210, 1-(6-(4,4-difluorocyclohexyl)-5-fluoropyridin-3-yl)-3-(5-(2-methoxyethoxy)-1H-pyrrolo[3,2-b]pyridin-3-yl)urea]
–	> 30000 nM	COc1ccc2[nH]cc(NC(=O)Nc3cnn(C4CCC(F)(F)CC4)c3)c2n1 [Compound 209, 1-(1-(4,4-difluorocyclohexyl)-1H-pyrazol-4-yl)-3-(5-methoxy-1H-pyrrolo[3,2-b]pyridin-3-yl)urea]
40 to 200 nM	–	O=C(Nc1cnc(N2CCC(F)(F)CC2)c(Cl)c1)Nc1c[nH]c2ncc(F)cc12 [Compound 110, 1-(5-chloro-6-(4,4-difluoropiperidin-1-yl)pyridin-3-yl)-3-(5-fluoro-1H-pyrrolo[2,3-b]pyridin-3-yl)urea]
–	> 30000 nM	CNC1CC(n2cc(NC(=O)Nc3ccc(C4CCC(F)(F)CC4)nc3)c3cc(F)cnc32)C1 (centres unmarked) [Compound 124, 1-(6-(4,4-difluorocyclohexyl)pyridin-3-yl)-3-(5-fluoro-1-(3-(methylamino)cyclobutyl)-1H-pyrrolo[2,3-b]pyridin-3-yl)urea]
200 to 1000 nM	–	O=C(Nc1cnc(C2CCN(CC(F)(F)F)CC2)c(Cl)c1)Nc1c[nH]c2cccnc12 [Compound 222, 1-(5-chloro-6-(1-(2,2,2-trifluoroethyl)piperidin-4-yl)pyridin-3-yl)-3-(1H-pyrrolo[3,2-b]pyridin-3-yl)urea]
40 to 200 nM	–	COc1ccc2[nH]cc(NC(=O)Nc3cnc(C4CCC(F)(F)CC4)c(Cl)c3)c2n1 [Compound 233, 1-(5-chloro-6-(4,4-difluorocyclohexyl)pyridin-3-yl)-3-(5-methoxy-1H-pyrrolo[3,2-b]pyridin-3-yl)urea]
40 to 200 nM	–	N#Cc1cc(NC(=O)Nc2c[nH]c3ncc(F)cc23)cnc1C1CCC(F)(F)CC1 [Compound 155, 1-(5-cyano-6-(4,4-difluorocyclohexyl)pyridin-3-yl)-3-(5-fluoro-1H-pyrrolo[2,3-b]pyridin-3-yl)urea]
5000 to 100000 nM	–	O=C(Nc1ccc(C2CCC(F)(F)CC2)nc1)Nc1c[nH]c2ncc(F)c(Br)c12 [Compound 182, 1-(4-bromo-5-fluoro-1H-pyrrolo[2,3-b]pyridin-3-yl)-3-(6-(4,4-difluorocyclohexyl)pyridin-3-yl)urea]
1000 to 5000 nM	–	O=C(Nc1ccc(NC2CCC2)nc1)Nc1c[nH]c2ncc(F)cc12 [Compound 112, 1-(6-(cyclobutylamino)pyridin-3-yl)-3-(5-fluoro-1H-pyrrolo[2,3-b]pyridin-3-yl)urea]
1000 to 5000 nM	–	Cc1cc(NC(=O)Nc2c[nH]c3c(F)cncc23)cnc1N1CCC(F)(F)CC1 [Compound 172, 1-(6-(4,4-difluoropiperidin-1-yl)-5-methylpyridin-3-yl)-3-(7-fluoro-1H-pyrrolo[3,2-c]pyridin-3-yl)urea]
200 to 1000 nM	–	CC(C)n1cc(-c2cnc3[nH]cc(NC(=O)Nc4ccc(C5CCC(F)(F)CC5)nc4)c3c2)cn1 [Compound 107, 1-(6-(4,4-difluorocyclohexyl)pyridin-3-yl)-3-(5-(1-isopropyl-1H-pyrazol-4-yl)-1H-pyrrolo[2,3-b]pyridin-3-yl)urea]
200 to 1000 nM	–	COc1ccc2[nH]cc(NC(=O)Nc3cnc(C4CCC(F)(F)CC4)c(C)c3)c2n1 [Compound 169, 1-(6-(4,4-difluorocyclohexyl)-5-methylpyridin-3-yl)-3-(5-methoxy-1H-pyrrolo[3,2-b]pyridin-3-yl)urea]

EC50 (class symbols)	EC50 (numeric bounds)	Structure (SMILES)
1000 to 5000 nM	–	CC(O)c1cc(NC(=O)Nc2c[nH]c3ncc(F)cc23)cnc1N1CCC(F)(F)CC1 (centres unmarked) [Compound 138, 1-(6-(4,4-difluoropiperidin-1-yl)-5-(1-hydroxyethyl)pyridin-3-yl)-3-(5-fluoro-1H-pyrrolo[2,3-b]pyridin-3-yl)urea]
5000 to 100000 nM	–	O=C(Nc1cnc(N2CC3(CN(CC(F)(F)F)C3)C2)c(Cl)c1)Nc1c[nH]c2cccnc12 [Compound 224, 1-(5-chloro-6-(6-(2,2,2-trifluoroethyl)-2,6-diazaspiro[3.3]heptan-2-yl)pyridin-3-yl)-3-(1H-pyrrolo[3,2-b]pyridin-3-yl)urea]
5000 to 100000 nM	–	Cc1cc(NC(=O)Nc2c[nH]c3cccnc23)cnc1C1CCC(F)(F)CC1 [Compound 136, 1-(6-(4,4-difluorocyclohexyl)-5-methylpyridin-3-yl)-3-(1H-pyrrolo[3,2-b]pyridin-3-yl)urea]
–	> 30000 nM	O=C(Nc1ccc(N2CCC(F)(F)CC2)nc1)Nc1c[nH]c2cccnc12 [Compound 220, 1-(6-(4,4-difluoropiperidin-1-yl)pyridin-3-yl)-3-(1H-pyrrolo[3,2-b]pyridin-3-yl)urea]
200 to 1000 nM	–	COc1cc(NC(=O)Nc2c[nH]c3ncc(F)cc23)cnc1N1CCC(F)(F)CC1 [Compound 165, 1-(6-(4,4-difluoropiperidin-1-yl)-5-methoxypyridin-3-yl)-3-(5-fluoro-1H-pyrrolo[2,3-b]pyridin-3-yl)urea]
5000 to 100000 nM	–	O=C(Nc1ccc(N2CCC(F)(F)CC2)nn1)Nc1c[nH]c2ncc(F)cc12 [Compound 193, 1-(6-(4,4-difluoropiperidin-1-yl)pyridazin-3-yl)-3-(5-fluoro-1H-pyrrolo[2,3-b]pyridin-3-yl)urea]
200 to 1000 nM	–	O=C(Nc1ccc(C2CC(F)(F)C2)c(F)c1)Nc1c[nH]c2ncc(F)cc12 [Compound 201, 1-(4-(3,3-difluorocyclobutyl)-3-fluorophenyl)-3-(5-fluoro-1H-pyrrolo[2,3-b]pyridin-3-yl)urea]
1000 to 5000 nM	–	CCc1ccc2[nH]cc(NC(=O)Nc3cnc(N4CCC(F)(F)CC4)c(C)c3)c2n1 [Compound 139, 1-(6-(4,4-difluoropiperidin-1-yl)-5-methylpyridin-3-yl)-3-(5-ethyl-1H-pyrrolo[3,2-b]pyridin-3-yl)urea]
–	> 30000 nM	O=C(Nc1cnn(C2CCC(F)(F)CC2)c1)Nc1c[nH]c2cccnc12 [Compound 205, 1-(1-(4,4-difluorocyclohexyl)-1H-pyrazol-4-yl)-3-(1H-pyrrolo[3,2-b]pyridin-3-yl)urea]
1000 to 5000 nM	–	COC1CCN(c2ncc(NC(=O)Nc3c[nH]c4ncc(F)cc34)cc2C)CC1 [Compound 194, 1-(5-fluoro-1H-pyrrolo[2,3-b]pyridin-3-yl)-3-(6-(4-methoxypiperidin-1-yl)-5-methylpyridin-3-yl)urea]
200 to 1000 nM	–	COc1ccc2[nH]cc(NC(=O)Nc3cnc(N4CC(F)(F)C4)c(Cl)c3)c2n1 [Compound 231, 1-(5-chloro-6-(3,3-difluoroazetidin-1-yl)pyridin-3-yl)-3-(5-methoxy-1H-pyrrolo[3,2-b]pyridin-3-yl)urea]
200 to 1000 nM	–	COc1ccc2[nH]cc(NC(=O)Nc3cnc(N4CCC(F)(F)CC4)c(Cl)c3)c2n1 [Compound 141, 1-(5-chloro-6-(4,4-difluoropiperidin-1-yl)pyridin-3-yl)-3-(5-methoxy-1H-pyrrolo[3,2-b]pyridin-3-yl)urea]
200 to 1000 nM	–	O=C(Nc1cnc(N2CC3(C2)CC(F)(F)C3)c(Cl)c1)Nc1c[nH]c2cccnc12 [Compound 223, 1-(5-chloro-6-(6,6-difluoro-2-azaspiro[3.3]heptan-2-yl)pyridin-3-yl)-3-(1H-pyrrolo[3,2-b]pyridin-3-yl)urea]
200 to 1000 nM	–	O=C(Nc1cnc(C2CCC(F)(F)CC2)c(F)c1)Nc1c[nH]c2cccnc12 [Compound 234, 1-(6-(4,4-difluorocyclohexyl)-5-fluoropyridin-3-yl)-3-(1H-pyrrolo[3,2-b]pyridin-3-yl)urea]
–	> 30000 nM	Cn1cc(NC(=O)Nc2ccc(C3CCC(F)(F)CC3)nc2)c2cc(F)cnc21 [Compound 127, 1-(6-(4,4-difluorocyclohexyl)pyridin-3-yl)-3-(5-fluoro-1-methyl-1H-pyrrolo[2,3-b]pyridin-3-yl)urea]
200 to 1000 nM	–	COc1cc(NC(=O)Nc2c[nH]c3ncc(F)cc23)cnc1C1CCC(F)(F)CC1 [Compound 164, 1-(6-(4,4-difluorocyclohexyl)-5-methoxypyridin-3-yl)-3-(5-fluoro-1H-pyrrolo[2,3-b]pyridin-3-yl)urea]
1000 to 5000 nM	–	O=C(Nc1ccc(C2CC(F)(F)C2)nc1)Nc1c[nH]c2ncc(F)cc12 [Compound 161, 1-(6-(3,3-difluorocyclobutyl)pyridin-3-yl)-3-(5-fluoro-1H-pyrrolo[2,3-b]pyridin-3-yl)urea]
